Data on 15 compounds can be found in article PMC2226154 (The Journal of General Physiology, 1974).

Series [1] deals with T1, neutral amino acid transport system in rabbit ileum (Oryctolagus cuniculus, UniProt B4XTG9). The conditions noted are these: Hajjar and Curran, phenylalanine analogs; cited from earlier work.
For series [2], the target named is T1, neutral amino acid transport system in rabbit ileum. The conditions noted are these: direct measurement of influx; cited from earlier work.
The conditions of series [3]: measured by Church and Hansch, unpublished; cited from earlier work.
Series [4] concerns the target T1, neutral amino acid transport system in rabbit ileum. The series is described as follows: Inhibition of L-methionine-14C influx across the brush border membrane. The conditions noted are these: for fold decrease in apparent affinity: compared to the corresponding parent compound.

Where two headings read alike, the source gives them in different places.

`CN[C@@H](Cc1ccccc1)C(=O)O` [N-methyl phenylalanine]: the Apparent affinity entry in series [1] was “very low apparent affinity”. For the compound `O=C(O)C(O)Cc1ccccc1` (stereo not drawn) [phenyllactic acid], the Apparent affinity in series [1] was 0.8 M⁻¹. For `C[C@H](N)C(=O)O` [Alanine], the Apparent affinity in series [2] was 14 M⁻¹. Besides, the “log P (octanol/water partition coefficient)” value in series [3] was -2.94.

Consider `CCC(O)C(N)C(=O)O` (stereo not drawn) [a-Amino-b-hydroxy valeric acid, a-amino-b-hydroxyvaleric acid], for which, in series [4] (read-out: KI observed, Table V, [Na] 35), the Ki is 5 mM. `O=C(O)CCc1ccccc1` [phenylpropionic acid]: the Apparent affinity in series [1] was 1.2 M⁻¹. Turning to `O[C@@H](CS)[C@@H](O)CS` (racemic) [Dithiothreitol], the “effect on methionine influx” value in series [4] (30 mM, separate control experiments) is given as “minimal effect”. As for `CC(C)(C)C(N)C(=O)O` (stereo not drawn) [tertiary leucine], the “fold decrease in apparent affinity” value in series [4] is roughly 10 fold.

As to `CCOC(=O)CCC(N)C(=O)O` (stereo not drawn) [Glutamic acid 7-ethyl ester], the “fold higher affinity than glutamic acid” value in series [4] is listed as 10 fold. In the case of `CSCC[C@@H](N)C(=O)O` [D-methionine], in series [4], the “fold decrease in apparent affinity” value is reported as “approximately 50 fold”. Turning to `COC(=O)CC[C@H](N)C(=O)O` [Glutamic acid Y-methyl ester], the “fold higher affinity than glutamic acid” value in series [4] worked out at 10 fold. `CCSCC[C@H](N)C(=O)O` [Ethionine]: the “observed ratio of KI” value in series [4] (0.5 mM methionine (reference)) was 1.00; in series [4] (2 mM methionine relative to 0.5 mM) it was 0.98; in series [4] (3 mM methionine relative to 0.5 mM), 1.08.

For `NCC(=O)O` [Glycine], the Apparent affinity in series [2] was 8 M⁻¹. In the case of `CC(C)C[C@H](N)C(=O)O` [Leucine], the Apparent affinity in series [2] is 32 M⁻¹.

Regarding `C=CC[C@H](N)C(=O)O` [Allylglycine], the “affinity lower than that of norvaline” value in series [4] is recorded as “approximately 30%”.

For the compound `N[C@@H](Cc1ccccc1)C(=O)O` [Phenylalanine], in series [1], the Apparent affinity is 56 M⁻¹.

What is called Ki is the dissociation constant of the complex between target and ligand, obtained from inhibition or displacement.
